# Assay results from patent US6355799B1, “Substituted benzene compounds, process for their preparation, and herbicidal and defoliant compositions containing them” (ISK Americas Incorporated, priority 1997, dated 2002).
# Experiments:
# Format in all cases: in vivo
# [1] = tested on: redroot pigweed (Amaranthus retroflexus, AMARE); assay: Pre-emerge test, greenhouse herbicide activity screening; conditions: pre-emerge, rated 14 days after application, 0 = no damage, 100 = complete death
# Summary of the method: (§1)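 Plants grown in 10 cm pots of sandy loam mix received acetone-dissolved compounds through a moving flat-fan nozzle. Doses ranged from 15 to 1000 g ai/ha. Pre-emerge pots were seeded one day earlier, post-emerge pots 8–21 days earlier. Fourteen days on, each pot was graded 0–100 for damage.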
# [2] = tested on: barnyardgrass (Echinochloa crus-galli, ECHCG); assay: as above; conditions: pre-emerge, rated 14 days after application, 0 = no damage, 100 = complete death
# Summary of the method: (§2)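 Rating: 0–100 visual injury, 14 DAA. Application: acetone, 187 l/ha, 15–1000 g ai/ha, flat-fan track sprayer with nozzle 40–45 cm above soil or canopy. Post-emerge runs used 0.25% v/v surfactant on 2–3 leaf plants.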
# [3] = tested on: green foxtail (Setaria viridis, SETVI); assay: as above; conditions: pre-emerge, rated 14 days after application, 0 = no damage, 100 = complete death
# Summary of the method: as §2
# [4] = tested on: ivyleaf morningglory (Ipomoea hederacea, IPOHE); assay: as above; conditions: pre-emerge, rated 14 days after application, 0 = no damage, 100 = complete death
# Summary of the method: as §2
# [5] = tested on: johnsongrass (Sorghum halepense, SORHA); assay: as above; conditions: pre-emerge, rated 14 days after application, 0 = no damage, 100 = complete death
# Summary of the method: as §2
# [6] = tested on: lambsquarters (Chenopodium album, CHEAL); assay: as above; conditions: pre-emerge, rated 14 days after application, 0 = no damage, 100 = complete death
# Summary of the method: as §2
# [7] = tested on: large crabgrass (Digitaria sanguinalis, DIGSA); assay: as above; conditions: pre-emerge, rated 14 days after application, 0 = no damage, 100 = complete death
# Summary of the method: as §2
# [8] = tested on: sicklepod (Cassia obtusifolia, CASOB); assay: as above; conditions: pre-emerge, rated 14 days after application, 0 = no damage, 100 = complete death
# Summary of the method: as §2
# [9] = tested on: velvetleaf (Abutilon theophrasti, ABUTH); assay: as above; conditions: pre-emerge, rated 14 days after application, 0 = no damage, 100 = complete death
# Summary of the method: as §2
# [10] = tested on: field corn (Zea mays L., var. Dekalb 535, CORN); assay: Pre-emerge test, crop safety; conditions: pre-emerge, rated 14 days after application, 0 = no damage, 100 = complete death
# Summary of the method: as §1
# [11] = tested on: upland rice (Oryza sp., var. Tebonnet, RICE); assay: Pre-emerge test, crop safety; conditions: pre-emerge, rated 14 days after application, 0 = no damage, 100 = complete death
# Summary of the method: as §1
# [12] = tested on: barnyardgrass (Echinochloa crus-galli, ECHCG); assay: Post-emerge test, greenhouse herbicide activity screening; conditions: phytotoxicity rating 0-100 (0 no damage, 100 complete death), 14 days after application
# Summary of the method: (§3)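 Compounds in acetone were track-sprayed at 15-1000 g ai/ha (187 l/ha) on sandy loam pots: pre-emerge one day after seeding, post-emerge at 2-3 leaf stage with 0.25% v/v non-ionic surfactant. Phytotoxicity was rated 14 days later on a 0 (no damage) to 100 (complete death) scale.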
# [13] = tested on: green foxtail (Setaria viridis, SETVI); assay: as above; conditions: phytotoxicity rating 0-100 (0 no damage, 100 complete death), 14 days after application
# Summary of the method: as §3
# [14] = tested on: ivyleaf morningglory (Ipomoea hederacea, IPOHE); assay: as above; conditions: phytotoxicity rating 0-100 (0 no damage, 100 complete death), 14 days after application
# Summary of the method: as §3
# [15] = tested on: johnsongrass (Sorghum halepense, SORHA); assay: as above; conditions: phytotoxicity rating 0-100 (0 no damage, 100 complete death), 14 days after application
# Summary of the method: as §3
# [16] = tested on: lambsquarters (Chenopodium album, CHEAL); assay: as above; conditions: phytotoxicity rating 0-100 (0 no damage, 100 complete death), 14 days after application
# Summary of the method: as §3
# [17] = tested on: large crabgrass (Digitaria sanguinalis, DIGSA); assay: as above; conditions: phytotoxicity rating 0-100 (0 no damage, 100 complete death), 14 days after application
# Summary of the method: as §3
# [18] = tested on: redroot pigweed (Amaranthus retroflexus, AMARE); assay: as above; conditions: phytotoxicity rating 0-100 (0 no damage, 100 complete death), 14 days after application
# Summary of the method: as §3
# [19] = tested on: sicklepod (Cassia obtusifolia, CASOB); assay: as above; conditions: phytotoxicity rating 0-100 (0 no damage, 100 complete death), 14 days after application
# Summary of the method: as §3
# [20] = tested on: velvetleaf (Abutilon theophrasti, ABUTH); assay: as above; conditions: phytotoxicity rating 0-100 (0 no damage, 100 complete death), 14 days after application
# Summary of the method: as §3
# [21] = tested on: field corn (Zea mays L., var. Dekalb 535, CORN); assay: Post-emerge test, crop safety; conditions: phytotoxicity rating 0-100 (0 no damage, 100 complete death), 14 days after application
# Summary of the method: as §1
# [22] = tested on: upland rice (Oryza sp., var. Tebonnet, RICE); assay: Post-emerge test, crop safety; conditions: phytotoxicity rating 0-100 (0 no damage, 100 complete death), 14 days after application
# Summary of the method: as §1
structure (smiles),measurement,setting,value
Cc1c(Cl)cc(F)c(-n2c(=O)cc(C(F)(F)F)n(C)c2=O)c1N [Compound 1-37],"Pre-emerge Herbicidal Activity AMARE (phytotoxicity rating, scale 0-100)",[1]; 63 g ai/ha,100
same,"Pre-emerge Herbicidal Activity AMARE (phytotoxicity rating, scale 0-100)",[1]; 250 g ai/ha,100
same,"Pre-emerge Herbicidal Activity ECHCG (phytotoxicity rating, scale 0-100)",[2]; 63 g ai/ha,90
same,"Pre-emerge Herbicidal Activity ECHCG (phytotoxicity rating, scale 0-100)",[2]; 250 g ai/ha,100
same,"Pre-emerge Herbicidal Activity SETVI (phytotoxicity rating, scale 0-100)",[3]; 63 g ai/ha,100
same,"Pre-emerge Herbicidal Activity SETVI (phytotoxicity rating, scale 0-100)",[3]; 250 g ai/ha,100
same,"Pre-emerge Herbicidal Activity IPOHE (phytotoxicity rating, scale 0-100)",[4]; 63 g ai/ha,100
same,"Pre-emerge Herbicidal Activity IPOHE (phytotoxicity rating, scale 0-100)",[4]; 250 g ai/ha,100
same,"Pre-emerge Herbicidal Activity SORHA (phytotoxicity rating, scale 0-100)",[5]; 63 g ai/ha,90
same,"Pre-emerge Herbicidal Activity SORHA (phytotoxicity rating, scale 0-100)",[5]; 250 g ai/ha,100
same,"Pre-emerge Herbicidal Activity CHEAL (phytotoxicity rating, scale 0-100)",[6]; 63 g ai/ha,100
same,"Pre-emerge Herbicidal Activity CHEAL (phytotoxicity rating, scale 0-100)",[6]; 250 g ai/ha,100
same,"Pre-emerge Herbicidal Activity DIGSA (phytotoxicity rating, scale 0-100)",[7]; 63 g ai/ha,100
same,"Pre-emerge Herbicidal Activity DIGSA (phytotoxicity rating, scale 0-100)",[7]; 250 g ai/ha,100
same,"Pre-emerge Herbicidal Activity CASOB (phytotoxicity rating, scale 0-100)",[8]; 63 g ai/ha,80
same,"Pre-emerge Herbicidal Activity CASOB (phytotoxicity rating, scale 0-100)",[8]; 250 g ai/ha,100
same,"Pre-emerge Herbicidal Activity ABUTH (phytotoxicity rating, scale 0-100)",[9]; 63 g ai/ha,100
same,"Pre-emerge Herbicidal Activity ABUTH (phytotoxicity rating, scale 0-100)",[9]; 250 g ai/ha,100
same,"Pre-emerge crop damage CORN (phytotoxicity rating, scale 0-100)",[10]; 63 g ai/ha,15
same,"Pre-emerge crop damage CORN (phytotoxicity rating, scale 0-100)",[10]; 250 g ai/ha,90
same,"Pre-emerge crop damage RICE (phytotoxicity rating, scale 0-100)",[11]; 63 g ai/ha,60
same,"Pre-emerge crop damage RICE (phytotoxicity rating, scale 0-100)",[11]; 250 g ai/ha,90
same,Post-emerge Herbicidal Activity ECHCG,[12]; 63 g ai/ha,30
same,Post-emerge Herbicidal Activity ECHCG,[12]; 250 g ai/ha,90
same,Post-emerge Herbicidal Activity SETVI,[13]; 63 g ai/ha,20
same,Post-emerge Herbicidal Activity SETVI,[13]; 250 g ai/ha,80
same,Post-emerge Herbicidal Activity IPOHE,[14]; 63 g ai/ha,100
same,Post-emerge Herbicidal Activity IPOHE,[14]; 250 g ai/ha,100
same,Post-emerge Herbicidal Activity SORHA,[15]; 63 g ai/ha,10
same,Post-emerge Herbicidal Activity SORHA,[15]; 250 g ai/ha,70
same,Post-emerge Herbicidal Activity CHEAL,[16]; 63 g ai/ha,95
same,Post-emerge Herbicidal Activity CHEAL,[16]; 250 g ai/ha,100
same,Post-emerge Herbicidal Activity DIGSA,[17]; 63 g ai/ha,10
same,Post-emerge Herbicidal Activity DIGSA,[17]; 250 g ai/ha,70
same,Post-emerge Herbicidal Activity AMARE,[18]; 63 g ai/ha,90
same,Post-emerge Herbicidal Activity AMARE,[18]; 250 g ai/ha,100
same,Post-emerge Herbicidal Activity CASOB,[19]; 63 g ai/ha,65
same,Post-emerge Herbicidal Activity CASOB,[19]; 250 g ai/ha,90
same,Post-emerge Herbicidal Activity ABUTH,[20]; 63 g ai/ha,100
same,Post-emerge Herbicidal Activity ABUTH,[20]; 250 g ai/ha,100
same,Post-emerge Herbicidal Activity CORN (crop damage),[21]; 63 g ai/ha,10
same,Post-emerge Herbicidal Activity CORN (crop damage),[21]; 250 g ai/ha,60
same,Post-emerge Herbicidal Activity RICE (crop damage),[22]; 63 g ai/ha,25
same,Post-emerge Herbicidal Activity RICE (crop damage),[22]; 250 g ai/ha,60
